Experimental data from patent US20020091131A1, “Epoxysuccinamide derivatives” (priority 1997, published 2002).

Tests used:
[1] = test system: rats grown with low calcium feed (bone resorption); test: Bone resorption inhibitory activity by decrease of plasma calcium concentration in rats grown with low calcium feed; assay type: in vivo, rat; settings: Wistar rats on low calcium feed, 6 hours after administration, vs non-administration group
Protocol: (1) If rats are grown with low calcium feed, its bone weight decreases. This is because calcium is left from bone by dissolution in blood (i.e., bone resorption) so as to maintain the calcium concentration in blood at a normal level. Therefore, compounds inhibiting bone resorption in the model adopted in this experiment inhibit dissolution of calcium in blood from bone to reduce the plasma calcium concentration. Thus, compounds of the invention were evaluated in their bone resorption inhibitory activity by measuring decrease of plasma calcium concentration in the following experiment (according to J. M. Delaisse et al., Biochem. Biophys. Res. Commun., 125, 441 (1984)
Rats of Wistar strain (age: 5 to 6 weeks) were grown with a low calcium content feed (Ca: 0.02S, available from Oriental Yeast Industries, Co., Ltd.) for one week to give bone resorption-enhanced condition A test compound was dissolved in aqueous 1 nethylcellulose solution (when the test compound was-hydrophobic, Tween 20, nonionic-surfactant, was added), and administered orally to the rat in a dosage of 0.2 mL/100 g (weight of rat) At 6 hours after the administration, blood was taken from tail vein of the rat Then, the plasma calcium concentration was measured by OCPC method,
The plasma calcium concentration decreasing activity (Ca decrease rate) of the test compound was calculated by the following equation:
Ca decrease rate (%)=100×(plasma calcium concentration at 6 hours after administration of test compound)−(plasma calcium concentration at the same time in non-administration group)/(plasma calcium concentration at the same time in non-administration group)

Cathepsin L = molecular target: T1, Cathepsin L (Rattus norvegicus, UniProt P07154); test: Cathepsin L inhibitory action (rat liver lysosome fraction, Z-Phe-Arg-MCA, in presence of CA-074); assay type: biochemical; settings: pH 5.5, 30° C., with 10^-7 M CA-074, read-out: Cathepsin Inhibition (IC50) Cathepsin L
T1 construct: Thus, a lysosome fraction was obtained; from tissue; host or cells: liver of male Wistar rat, crude lysosome fraction
Protocol: (§1) Male rat of Wistar strain was killed by exsanguination and a ice-chilled physiological saline was introduced into portal vein for circulation Then, its liver was taken out. Thereafter, the following procedures were performed at 4°C.
(§2) The liver was minced by scissors. Five grams of minced liver were homogenized in a Potter type Teflon Homogenizer after addition of 9 volumes of 0.25 M sucrose. The homogenate was centrifuged at 800 G for 10 minutes. The resulting supernatant was further centrifuged at 12,000 G for 20 minutes. The precipitate was homogenized in 25 mL of 0.25 M sucrose, and then centrifuged at 12,000 G for 20 minutes. The resulting precipitate was further homogenized in 10 mL of 0.25 M sucrose. Thus, a lysosome fraction was obtained,
(§3) The lysosome fraction was diluted with 0.25M sucrose containing 0.336 of Triton X-100 for the use in the measurement of cathepsin L activity.
To 0.25 mL of a solution (pH: 5.5) containing 340 mM sodium acetate, 60 mM acetic acid, 4 mM EDTA and 8 mM dithiothreitol were added 0.1mL of the lysosome fraction, 5 μL of the test compound solution, and 0.545 mL of distilled water. The mixture was pre-incubated at 30° C. for 15 minutes. Thereafter, 0.1 mL of 50 μM by carbobenzoxy-L-phenylalanyl-L-arginine-4-methylcoumaryl-7-amide (Z-Phe-Arg-MCA) solution was added, and the reaction was started. The reaction was performed at 30° C. for 20 minutes, and then terminated by addition of 1mL of an aqueous solution (pH. 4.3) containing 100 mM sodium mono-chloroacetate, […] and 70 mM acetic acid The finally obtained solution was subjected to measurement of fluorescence strength (excitation wave-length: 380 nm, emission wavelength: 460 nm.
The Z-Phe-Arg-MCA is also decomposed by cathepsin B which is contained in the lysosome fraction.

Cathepsin B = molecular target: T2, Cathepsin B (Rattus norvegicus, UniProt P00787); test: Cathepsin B inhibitory action (lysosome fraction, Z-Arg-Arg-MCA); assay type: biochemical; settings: pH 6.0, 30° C., read-out: Cathepsin Inhibition (IC50) Cathepsin B
T2 construct: from tissue; host or cells: liver of male Wistar rat, crude lysosome fraction
Protocol: as §1, §2, §3
To 0.25 mL of a solution (pH: 6.0) containing 352 mM KH2PO4, 48 mM Na2HPO4, 5.32 mM EDTA·2Na and 10 mM L-cysteine were added 0.1 mL of the lysosome fraction, 5 μL of the test compound solution, and 0.545 mL of distilled water. The mixture was pre-incubated at 30° C. for 15 minutes. Thereafter, the reaction was started by the addition of 0.1 mL of a solution of 50 μM carbobenzoxy-L-arginine-L-arginine-4-methylcoumaryl-7-amide (Z-Arg-Arg-MCA, substrate). The reaction was performed at 30° C. for 20 minutes, and then terminated by addition of 1 mL of an aqueous solution (pH: 4.3) containing 100 mM sodium mono-chloroacetate, 30 mM sodium acetate and 70 mM acetic acid. The finally obtained solution was subjected to measurement of fluorescence strength (excitation wavelength: 380 nm, emission wavelength: 460 nm).

Rat adjuvant arthritis = test: Action on rat adjuvant arthritis (hind paw volume); assay type: in vivo; settings: Wistar rats, 300 mg/kg orally once a day for 21 days, untreated hind paw, significant vs control, risk <1%
Protocol: Rat adjuvant arthritis which is considered as a model of rheumatoid arthritis of human being was employed for evaluation of the compound of the invention.
Male rats of Wistar strain (age: 5 weeks) were sensitized by subcutaneous injection of Mycobacterium Butyricum which was suspended in liquid paraffin into the right hind paw. From the next day, a test compound (the compound of the aforementioned Example 5) was orally administered at a dosage of 300 mg/kg once a day for 21 days (administration group: 8 rats). After the last administration was complete, a volume of the untreated hind paw was measured by means of Volume Differential Meter and compared with that of Control group (8 rats, non-administration group) In addition, a non-adjuvant treatment group (normal group: 8 rats) was subjected to the same measurement. Inhibition of expansion of the hind paw by the test compound (Inhibition rate) was calculated by the following equation:
Inhibition rate (%)=100×(administration group−control group)/(normal group−control group)

ovariectomized rats = test: Action on ovariectomized rats (postmenopausal osteoporosis model), bone density by p-QCT; assay type: in vivo, rat; settings: ovariectomized SD female rats, 300 mg/kg once a day for 4 weeks; average ± SD; control 543.7 ± 31.4, false operation 658.8 ± 46.3; P < 0.01 vs control
Protocol: The ovariectomized rats were employed as models of postmenopausal osteoporosis, for evaluating the compound of the invention. (2) Experimental Procedures
The ovaries on both sides were removed surgically in SD female rats (age; 13 weeks). From the next day, a test compound (compound of Example 5) was administered at 300 mg/kg to the rats once a day for 4 weeks (administration group: 8 rats). After the last administration was complete, the fourth vertebrae lumbale was taken out, and the total bone density was measured by means of p-QCT (Peripheral Bone Density-Measuring Apparatus) and compared with the bone density of the control group (7 rats). In addition, rats treated by false-operation were also subjected to the same measurement, […]

[2] = Rattus norvegicus, po, 15 mg/kg p.o., read-out: Measured Plasma Ca Concentration (Ca decrease rate)

T1 sequence (P07154 114-334): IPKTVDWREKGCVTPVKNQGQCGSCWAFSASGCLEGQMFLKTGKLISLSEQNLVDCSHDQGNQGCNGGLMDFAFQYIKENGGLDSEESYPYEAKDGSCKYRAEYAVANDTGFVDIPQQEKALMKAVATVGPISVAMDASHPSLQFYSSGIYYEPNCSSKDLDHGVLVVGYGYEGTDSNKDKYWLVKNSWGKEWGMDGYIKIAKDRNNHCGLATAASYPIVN
T2 sequence (P00787 80-333): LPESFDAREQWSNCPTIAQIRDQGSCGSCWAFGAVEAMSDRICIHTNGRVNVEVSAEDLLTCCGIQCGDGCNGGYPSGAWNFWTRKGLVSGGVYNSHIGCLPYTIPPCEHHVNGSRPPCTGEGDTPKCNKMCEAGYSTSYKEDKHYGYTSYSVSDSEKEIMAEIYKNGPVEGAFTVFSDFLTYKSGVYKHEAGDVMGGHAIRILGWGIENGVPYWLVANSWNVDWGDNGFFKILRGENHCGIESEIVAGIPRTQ

| Structure (SMILES) | change in vivo at 15 mg/kg [1, 2] | IC50 (Cathepsin L) | IC50 (Cathepsin B) | further results |
| --- | --- | --- | --- | --- |
| CCOC(=O)[C@H]1O[C@@H]1C(=O)N[C@@H](CC(C)C)[C@H](O)c1ccccc1 [Example 1a, Ethyl (2S,3S)-3-[[1-(S)-[α-(R)-hydroxybenzyl]-3-methyl-butyl]carbamoyl]oxirane-2-carboxylate] | -12.5% | – | – | – |
| CC(C)C[C@H](NC(=O)[C@H]1O[C@@H]1C(=O)O)[C@H](O)c1ccccc1 [Example 2, (2S,3S)-3-[[1-(S)-[α-(R)-hydroxybenzyl]-3-methylbutyl]-carbamoyl]oxirane-2-carboxylic acid] | – | 11 nM | 120 nM | – |
| CCOC(=O)[C@H]1O[C@@H]1C(=O)N[C@@H](CC(C)C)[C@H](OC)c1ccccc1 [Example 5, Ethyl (2S,3S)-3-[[1-(S)-[α-(R)-methoxybenzyl]-3-methyl-butyl]carbamoyl]oxirane-2-carboxylate] | -20.4% | – | – | Inhibition of expansion of the hind paw (Inhibition rate) (Rat adjuvant arthritis): 42%; melting point: 108 to 109 °C; Total bone density of the fourth vertebrae lumbale (ovariectomized rats): 617.8 ± 37.9 mg/mL |
| CCOC(=O)[C@H]1O[C@@H]1C(=O)N[C@@H](CC(C)C)C(=O)c1ccccc1 [Example 7, Ethyl (2S,3S)-3-[[1-(S)-benzoyl-3-methylbutyl]carbamoyl]-oxirane-2-carboxylate] | -13.6% | – | – | – |
| CCOC(=O)[C@H]1O[C@@H]1C(=O)N[C@H](C(=O)c1ccccc1)C(C)C [Example 8, Ethyl (2S,3S)-3-[[1-(S)-benzoyl-2-methylpropyl]-carbamoyl]oxirane-2-carboxylate] | -15.8% | – | – | – |
| CCC(C)[C@H](NC(=O)[C@H]1O[C@@H]1C(=O)O)[C@H](O)c1ccccc1 (stereo partly drawn) [Example 9, (2S,3S)-3-[[1-(S)-[α-(R)-hydroxybenzyl]-2-methylbutyl]carbamoyl]oxirane-2-carboxylic acid] | – | 57 nM | 210 nM | – |
| CO[C@H](c1ccccc1)[C@H](CC(C)C)NC(=O)[C@H]1O[C@@H]1C(=O)O [Example 11, (2S,3S)-3-[[1-(S)-[α-(R)-methoxybenzyl]-3-methylbutyl]-carbamoyl]oxirane-2-carboxylic Acid] | -17.3% | 18 nM | 85 nM | – |
| CC(C)C[C@@H](CO)NC(=O)[C@H]1O[C@@H]1C(=O)O [Example 12, (2S,3S)-3-[[1-(S)-hydroxymethyl-3-methylbutyl]carbamoyl]-oxirane-2-carboxylic Acid] | – | 94 nM | 100 nM | – |
| CCOC(=O)[C@H]1O[C@@H]1C(=O)N[C@@H](CC(C)C)[C@H](OC(C)=O)c1ccccc1 [Example 13, Ethyl (2S,3S)-3-[[1(S)-[α-(R)-acetoxybenzyl]-3-methyl-butyl]carbamoyl]oxirane-2-carboxylate] | -14.7% | – | – | – |
| CO[C@H](c1ccccc1)[C@H](CC(C)C)NC(=O)[C@H]1O[C@@H]1C(=O)OC(C)C [Example 14, Isopropyl (2S,3S)-3-[[1-(S)-[α-(R)-methoxybenzyl]-3-methylbutyl]carbamoyl]oxirane-2-carboxylate] | – | – | – | change in vivo at 5 mg/kg ([1]; Rattus norvegicus, po, 5 mg/kg p.o., read-out: Measured Plasma Ca Concentration (Ca decrease rate)): -9.9% |
| CCOC(=O)[C@H]1O[C@@H]1C(=O)N[C@H](COCc1ccccc1)CC(C)C [Example 17, Ethyl (2S,3S)-3-[[1-(S)-benzyloxymethyl-3-methylbutyl]-carbamoyl]oxirane-2-carboxylate] | -15.4% | – | – | – |
| CCOC(=O)[C@H]1O[C@@H]1C(=O)N[C@H](COCC(C)C)CC(C)C [Example 18a, Ethyl (2S,3S)-3-[[1-(S)-isobutoxyrethyl-3-methylbutyl]-carbamoyl]oxirane-2-carboxylate] | – | – | – | Measured Plasma Ca Concentration (Ca decrease rate) ([1]; 15 mg/kg p.o.): −24.5% |
| CC(C)C[C@H](NC(=O)[C@H]1O[C@@H]1C(=O)O)[C@H](OCc1ccccc1)c1ccccc1 [Example 22, (2S,3S)-3-[[1-(S)-[α-(R)-(benzyloxy)benzyl]-3-methyl-butyl]carbamoyl]oxirane-2-carboxylic Acid] | – | 3.3 nM | 41 nM | – |
| O=C(O)[C@H]1O[C@@H]1C(=O)N[C@H](COCc1ccccc1)Cc1ccccc1 [Example 23] | – | 11 nM | – | – |
| CC(C)C[C@@H](COCc1ccccc1)NC(=O)[C@H]1O[C@@H]1C(=O)O [Example 24, Sodium (2S,3S)-3-[[1-(S)-benzyloxymethyl-3-methylbutyl]-carbamoyl]oxirane-2-carboxylate] | – | 6.9 nM | 28 nM | – |
